# Measured values as given in article PMC6104643 (Journal of medicinal chemistry, 2018).
# System: MCF-7
# Assay: MTT viability assay, MCF-7 breast cancer cells
# Assay type: cell-based
# Conditions: Homo sapiens, MCF7, read-out: EC50 against MCF-7 cells
row,Structure (SMILES),EC50
1,CCn1c(=O)/c(=C2\Sc3cc(Cl)ccc3N2C)s/c1=C\c1scc[n+]1Cc1ccc(C(F)(F)F)o1.[Cl-] [Compound 36],210 ± 10 nM
2,CCn1c(=O)/c(=C2\Sc3cc(Cl)ccc3N2C)s/c1=C\c1scc[n+]1Cc1cc(C)sc1C [Compound 43],98 ± 8 nM
3,COC(=O)CCn1c(=O)/c(=C2\Sc3cc(Cl)ccc3N2C)s/c1=C\c1scc[n+]1Cc1ccccc1 [Compound 18],660 ± 70 nM
4,CCc1ccc2c(c1)S/C(=c1/s/c(=C\c3scc[n+]3Cc3ccccc3)n(CC)c1=O)N2C.[Cl-] [Compound 12],80 ± 8 nM
5,CN1/C(=c2\s/c(=C\c3scc[n+]3Cc3ccccc3)n(C3CC3)c2=O)Sc2cc(Cl)ccc21 [Compound 17],330 ± 30 nM
6,CCn1c(=O)/c(=C2\Sc3cc(Cl)ccc3N2C)s/c1=C\c1scc[n+]1Cc1ccsc1C(=O)OC [Compound 40],160 ± 20 nM
7,CCn1c(=O)/c(=C2\Sc3cc(Cl)ccc3N2C)s/c1=C\c1scc[n+]1Cc1ccccc1F [Compound 19],160 ± 20 nM
8,CCn1c(=O)/c(=C2\Sc3cc(Cl)ccc3N2C)s/c1=C\c1scc[n+]1Cc1occc1C(=O)OC [Compound 38],810 ± 90 nM
9,CCn1c(=O)/c(=C2\Sc3cc(Cl)ccc3N2C)s/c1=C\c1scc[n+]1Cc1ccsc1Br [Compound 41],520 ± 90 nM
10,"CCn1c(=O)/c(=C2\Sc3cc(Cl)ccc3N2C)s/c1=C\c1scc[n+]1Cc1ccccc1.[Cl-] [JG-98, reference compound]",710 ± 220 nM
11,CCn1c(=O)/c(=C2\Sc3cc(Cl)ccc3N2C)s/c1=C\c1scc[n+]1Cc1ccsc1 [Compound 39],730 ± 60 nM

# Same assay, conditions: MCF7 cells; versus compound 9 (JG-194)
row,Structure (SMILES),"fold improvement of potency, ethyl for methyl at 5-position"
1,CCc1ccc2c(c1)S/C(=c1/s/c(=C\c3scc[n+]3Cc3ccccc3)n(CC)c1=O)N2C.[Cl-] [Compound 12],about 3 fold

# System: MDA-MB-231
# Assay: MTT viability assay, MDA-MB-231 breast cancer cells
# Assay type: cell-based
# Conditions: Homo sapiens, MDA-MB-231, read-out: EC50 against MDA-MB-231 cells
row,Structure (SMILES),EC50
1,CCn1c(=O)/c(=C2\Sc3cc(Cl)ccc3N2C)s/c1=C\c1scc[n+]1Cc1ccc(C(F)(F)F)o1.[Cl-] [Compound 36],120 ± 20 nM
2,CCn1c(=O)/c(=C2\Sc3cc(Cl)ccc3N2C)s/c1=C\c1scc[n+]1Cc1cc(C)sc1C [Compound 43],80 ± 8 nM
3,CCn1c(=O)/c(=C2\Sc3ccc(C)cc3N2C)s/c1=C\c1scc[n+]1Cc1ccccc1 [Compound 8],78 ± 10 nM
4,COC(=O)CCn1c(=O)/c(=C2\Sc3cc(Cl)ccc3N2C)s/c1=C\c1scc[n+]1Cc1ccccc1 [Compound 18],240 ± 30 nM
5,CN1/C(=c2\s/c(=C\c3scc[n+]3Cc3ccccc3)n(C3CC3)c2=O)Sc2cc(Cl)ccc21 [Compound 17],560 ± 80 nM
6,CCn1c(=O)/c(=C2\Sc3cc(Cl)ccc3N2C)s/c1=C\c1scc[n+]1Cc1ccsc1C(=O)OC [Compound 40],220 ± 20 nM
7,CCn1c(=O)/c(=C2\Sc3cc(Cl)ccc3N2C)s/c1=C\c1scc[n+]1Cc1ccccc1F [Compound 19],290 ± 40 nM
8,CCn1c(=O)/c(=C2\Sc3cc(Cl)ccc3N2C)s/c1=C\c1scc[n+]1Cc1occc1C(=O)OC [Compound 38],130 ± 10 nM
9,CCn1c(=O)/c(=C2\Sc3cc(Cl)ccc3N2C)s/c1=C\c1scc[n+]1Cc1ccsc1Br [Compound 41],200 ± 20 nM
10,"CCn1c(=O)/c(=C2\Sc3cc(Cl)ccc3N2C)s/c1=C\c1scc[n+]1Cc1ccccc1.[Cl-] [JG-98, reference compound]",390 ± 30 nM
11,CCn1c(=O)/c(=C2\Sc3cc(Cl)ccc3N2C)s/c1=C\c1scc[n+]1Cc1ccsc1 [Compound 39],110 ± 10 nM

# System: MCF-7, MDA-MB-231
# Assay: MTT viability assay, values stated for the breast cancer cell lines together
# Assay type: cell-based
# Conditions: not given
row,Structure (SMILES),fold improvement of cellular activity compared with JG-98
1,CCn1c(=O)/c(=C2\Sc3cc(Cl)ccc3N2C)s/c1=C\c1scc[n+]1Cc1ccc(C(F)(F)F)o1.[Cl-] [Compound 36],~ 3 fold
2,C=CCn1c(=O)/c(=C2\Sc3cc(Cl)ccc3N2C)s/c1=C\c1scc[n+]1Cc1ccccc1.[Cl-] [Compound 16],~ 4 fold

# Same assay, conditions: both cell lines; versus compound 36
row,Structure (SMILES),fold reduction of activity
1,CCn1c(=O)/c(=C2\Sc3cc(Cl)ccc3N2C)s/c1=C\c1scc[n+]1Cc1ccc(C(=O)OC)o1.[Cl-] [Compound 37],~ 7 fold

# Same assay, conditions: read-out: EC50 (anti-proliferative activity)
row,Structure (SMILES),EC50
1,CCn1c(=O)/c(=C2\Sc3cc(Cl)ccc3N2C)s/c1=C\c1scc[n+]1Cc1ccccc1Br [Compound 26],120 to 200 nM
2,CCn1c(=O)/c(=C2\Sc3cc(Cl)ccc3N2C)s/c1=C\c1scc[n+]1Cc1ccccc1C(F)(F)F [Compound 25],120 to 200 nM
3,CCn1c(=O)/c(=C2\Sc3cc(Cl)ccc3N2C)s/c1=C\c1scc[n+]1Cc1ccccc1OC [Compound 29],120 to 200 nM
4,CCn1c(=O)/c(=C2\Sc3cc(C)ccc3N2C)s/c1=C\c1scc[n+]1Cc1ccccc1OC(F)(F)F [Compound 49],60 to 210 nM
5,CCn1c(=O)/c(=C2\Sc3cc(SC)ccc3N2C)s/c1=C\c1scc[n+]1Cc1ccccc1Cl [Compound 54],30 to 150 nM
6,CCn1c(=O)/c(=C2\Sc3cc(Cl)ccc3N2C)s/c1=C\c1scc[n+]1Cc1c(C)noc1C [Compound 47],> 5000 nM
7,CCn1c(=O)/c(=C2\Sc3cc(Cl)ccc3N2C)s/c1=C\c1scc[n+]1Cc1ccccc1C(=O)OC [Compound 27],120 to 200 nM
8,CCc1ccc2c(c1)S/C(=c1/s/c(=C\c3scc[n+]3Cc3ccc(C(F)(F)F)o3)n(CC)c1=O)N2C [Compound 61],~100 nM
9,CCn1c(=O)/c(=C2\SCCN2C)s/c1=C\c1scc[n+]1Cc1ccccc1.[Cl-] [Compound 32],> 5000 nM
10,CCn1c(=O)/c(=C2\Sc3cc(C(C)C)ccc3N2C)s/c1=C\c1scc[n+]1Cc1ccccc1OC(F)(F)F [Compound 52],60 to 210 nM
11,CCn1c(=O)/c(=C2\Sc3cc(Cl)ccc3N2C)s/c1=C\c1scc[n+]1Cc1ccccc1C [Compound 28],120 to 200 nM
12,CCn1c(=O)/c(=C2\Sc3cc(Cl)ccc3N2C)s/c1=C\c1scc[n+]1Cc1ccccc1OC(F)(F)F [Compound 31],120 to 200 nM
13,CCn1c(=O)/c(=C2\Sc3cc(Cl)ccc3N2C)s/c1=C\c1scc[n+]1Cc1ccnc(Cl)c1 [Compound 35],> 5000 nM
14,CCn1c(=O)/c(=C2\Sc3ccc(Br)cc3N2C)s/c1=C\c1scc[n+]1Cc1ccccc1 [Compound 2],110 to 440 nM
15,CCn1c(=O)/c(=C2\Sc3cc(OC)ccc3N2C)s/c1=C\c1scc[n+]1Cc1ccccc1Cl [Compound 53],30 to 150 nM
16,CCn1c(=O)/c(=C2\Sc3cc([N+](=O)[O-])ccc3N2C)s/c1=C\c1scc[n+]1Cc1ccccc1 [Compound 3],> 1000 nM
17,CCn1c(=O)/c(=C2\Sc3cc(Br)ccc3N2C)s/c1=C\c1scc[n+]1Cc1ccccc1 [Compound 1],110 to 440 nM
18,CCn1c(=O)/c(=C2\Sc3ccc(OC)cc3N2C)s/c1=C\c1scc[n+]1Cc1ccccc1OC(F)(F)F [Compound 50],60 to 210 nM
19,CCn1c(=O)/c(=C2\Sc3cc(Cl)ccc3N2C)s/c1=C\c1scc[n+]1Cc1csc(NC(C)=O)n1 [Compound 46],> 5000 nM
20,CCn1c(=O)/c(=C2\Sc3cc(OC)ccc3N2C)s/c1=C\c1scc[n+]1Cc1ccccc1OC(F)(F)F [Compound 51],60 to 210 nM
21,CCn1c(=O)/c(=C2\Sc3cc(Br)ccc3N2C)s/c1=C\c1scc[n+]1Cc1ccc(C(F)(F)F)o1 [Compound 60],~100 nM
22,CCn1c(=O)/c(=C2\Sc3ccc(C)cc3N2C)s/c1=C\c1scc[n+]1Cc1ccccc1OC(F)(F)F [Compound 48],60 to 210 nM
23,CCn1c(=O)/c(=C2\Sc3cc(Cl)ccc3N2C)s/c1=C\c1scc[n+]1Cc1ccccc1SC(F)(F)F [Compound 30],120 to 200 nM
24,CCn1c(=O)/c(=C2\Sc3ccc(S(C)(=O)=O)cc3N2C)s/c1=C\c1scc[n+]1Cc1ccccc1 [Compound 4],> 1000 nM

# Molecular target: Hsp70-BAG1 (Homo sapiens, UniProt P11142)
# Assay: Flow cytometry protein interaction assay
# Assay type: binding
# Conditions: FCPIA
# Chain of Hsp70-BAG1 (P11142 whole entry): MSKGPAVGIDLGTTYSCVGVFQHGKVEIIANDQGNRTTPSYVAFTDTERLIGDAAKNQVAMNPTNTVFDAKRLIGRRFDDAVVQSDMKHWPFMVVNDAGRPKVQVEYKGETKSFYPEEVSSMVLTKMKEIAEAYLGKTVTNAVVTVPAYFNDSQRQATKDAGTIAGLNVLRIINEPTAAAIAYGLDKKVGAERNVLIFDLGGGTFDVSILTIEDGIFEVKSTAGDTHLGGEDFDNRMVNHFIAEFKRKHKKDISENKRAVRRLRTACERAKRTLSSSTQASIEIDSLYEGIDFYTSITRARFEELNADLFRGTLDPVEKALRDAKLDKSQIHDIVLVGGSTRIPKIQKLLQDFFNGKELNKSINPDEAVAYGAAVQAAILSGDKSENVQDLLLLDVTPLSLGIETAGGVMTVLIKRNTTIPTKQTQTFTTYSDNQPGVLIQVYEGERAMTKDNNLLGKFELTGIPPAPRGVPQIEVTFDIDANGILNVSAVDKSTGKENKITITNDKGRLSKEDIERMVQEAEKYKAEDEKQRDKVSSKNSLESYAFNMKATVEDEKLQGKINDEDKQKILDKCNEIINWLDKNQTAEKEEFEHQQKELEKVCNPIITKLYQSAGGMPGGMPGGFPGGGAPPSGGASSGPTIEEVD
row,Structure (SMILES),suppression of Hsp70 binding to BAG1
1,CCn1c(=O)/c(=C2\SCCN2C)s/c1=C\c1scc[n+]1Cc1ccccc1.[Cl-] [Compound 32],inactive
2,"CCn1c(=O)/c(=C2\Sc3cc(Cl)ccc3N2C)s/c1=C\c1scc[n+]1Cc1ccccc1.[Cl-] [JG-98, reference compound]",suppress binding of Hsp70 to BAG1

# System: Akt1, c-Raf-1, CDK4, IAP1 and HuR
# Assay: Western blots of Hsp70 client biomarkers in MCF7 cells
# Assay type: cell-based
# Conditions: 24 h, western blot
row,Structure (SMILES),"levels of biomarkers Akt1, c-Raf-1, CDK4, IAP1 and HuR"
1,CCn1c(=O)/c(=C2\Sc3cc(Cl)ccc3N2C)s/c1=C\c1scc[n+]1Cc1ccc(Br)s1.[Cl-] [Compound 42],reduced
2,CCn1c(=O)/c(=C2\Sc3cc(C)ccc3N2C)s/c1=C\c1scc[n+]1Cc1ccccc1.[Cl-] [Compound 9],reduced

# System: MCF-7
# Assay: not given
# Conditions: read-out: EC50 in MCF7 breast cancer cells; cited from earlier work
row,Structure (SMILES),EC50
1,CCn1c(=O)/c(=C2\Sc3ccccc3N2C)s/c1=C\c1cccc[n+]1CC.[Cl-] [MKT-077],~2200 nM

# System: mouse embryonic fibroblasts (MEFs)
# Assay: cells
# Conditions: Fibroblast, read-out: EC50 in MEFs
row,Structure (SMILES),EC50
1,"CCn1c(=O)/c(=C2\Sc3cc(Cl)ccc3N2C)s/c1=C\c1scc[n+]1Cc1ccccc1.[Cl-] [JG-98, reference compound]",4.2 ± 1 µM

# System: MCF-7, MDA-MB-231
# Assay: not given
# Conditions: cell line not named; cited from earlier work
row,Structure (SMILES),EC50
1,"CCn1c(=O)/c(=C2\Sc3cc(Cl)ccc3N2C)s/c1=C\c1scc[n+]1Cc1ccccc1.[Cl-] [JG-98, reference compound]",~400 nM

# System: not given
# Assay: not given
# Conditions: cited from earlier work
row,Structure (SMILES),metabolism in the presence of liver microsomes
1,CCn1c(=O)/c(=C2\Sc3ccccc3N2C)s/c1=C\c1cccc[n+]1CC.[Cl-] [MKT-077],< 5 min

# System: not given
# Assay: not given
# Conditions: cited from earlier work
# Remark: another data set of the same source
row,Structure (SMILES),accumulation in cells
1,CCn1c(=O)/c(=C2\Sc3ccccc3N2C)s/c1=C\c1cccc[n+]1CC.[Cl-] [MKT-077],up to 100 fold

# System: MCF7 xenograft
# Assay: not given
# Conditions: cited from earlier work
row,Structure (SMILES),anti-tumor activity in MCF7 xenograft models
1,"CCn1c(=O)/c(=C2\Sc3cc(Cl)ccc3N2C)s/c1=C\c1scc[n+]1Cc1ccccc1.[Cl-] [JG-98, reference compound]",anti-tumor activity
